Measurements taken from the supplement of paper PMC10307832.

Compound: CCn1c(-c2nonc2N)nc2c(C#CC(C)(C)O)ncc(OC[C@H]3CCCNC3)c21 + Cc1cc(Nc2cc(N3CCN(C)CC3)nc(Sc3ccc(NC(=O)C4CC4)cc3)n2)n[nH]1 [Tozasertib] (partner 0.1 µM)
Test: relative viability (nuclei count vs DMSO), 5 days (fraction); higher = more cells survive
Conditions: first compound 1 µM
Method in brief: (§1)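 Lung cancer cell lines were seeded in 1536-well plates and dosed by pin tool the next day, with either a single drug or a fixed anchor-drug dose combined with five library-drug doses (not always all listed) spaced in √10 steps. Five days later, one step fixed the cells and stained their nuclei (final 0.05% Triton X-100, 1% formaldehyde, 1 ug/ml Hoechst), and nuclei were counted on 4× images. Relative viability is the nuclei count in treated wells divided by the count in vehicle wells, and each value is the median of duplicate plates.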

First: HARA
Second: NCI-H1648
The relative viability of the first is lower: 0.109 for the first, 0.574 for the second.

Compared with HCC-78, NCI-H322M is higher in relative viability: 0.405 for the first, 0.448 for the second.

Compared with LCLC-97TM1, NCI-H2009 is higher in relative viability: 0.204 for the first, 0.771 for the second.

For A-427, the relative viability was 0.188.

Compound: CCOC1=CC=CC=C1N=NC2=C(NN(C2=O)C3=NC(=CS3)C4=CC=CC=C4)C [BAM7] + Cc1nc(Nc2ncc(C(=O)Nc3c(C)cccc3Cl)s2)cc(N2CCN(CCO)CC2)n1 [Dasatinib] (partner 0.075 µM)
Test: as above
Conditions: first compound 0.5 µM
Method in brief: as §1

Compared with NCI-H522, NCI-H1623 is lower in relative viability: 0.872 for the first, 0.576 for the second.

Compared with NCI-H727, NCI-H1650 is lower in relative viability: 0.351 for the first, 0.338 for the second.

Going from NCI-H1993 to SW 1573, the relative viability rises from 0.492 to 0.575.

First: NCI-H838
Second: LCLC-103H
The relative viability of the first is lower: 0.36 for the first, 0.46 for the second.

Compared with NCI-H520, NCI-H2126 is higher in relative viability: 0.184 for the first, 0.584 for the second.

First: EMC-BAC-2
Second: NCI-H2085
The relative viability of the first is higher: 0.301 for the first, 0.237 for the second.

First: HCC-366
Second: NCI-H1666
The relative viability of the first is lower: 0.67 for the first, 0.847 for the second.

First: NCI-H596
Second: LK-2
The relative viability of the first is higher: 0.621 for the first, 0.242 for the second.

First: NCI-H2087
Second: NCI-H2342
The relative viability of the first is higher: 0.939 for the first, 0.286 for the second.

Going from SK-MES-1 to H3255, the relative viability rises from 0.366 to 0.397.

First: COR-L23
Second: COR-L 105
The relative viability of the first is higher: 0.476 for the first, 0.308 for the second.

First: LOU-NH91
Second: ChaGo-K-1
The relative viability of the first is lower: 0.495 for the first, 0.641 for the second.

Going from NCI-H2170 to NCI-H2405, the relative viability falls from 0.644 to 0.195.

Compared with HOP-62, SW 900 is lower in relative viability: 0.636 for the first, 0.358 for the second.

First: LU99A
Second: BEN
The relative viability of the first is higher: 0.661 for the first, 0.351 for the second.

Compared with HARA, HCC-78 is higher in relative viability: 0.293 for the first, 0.502 for the second.

Compared with NCI-H322M, LCLC-97TM1 is higher in relative viability: 0.271 for the first, 1.05 for the second.

Going from NCI-H2009 to A-427, the relative viability rises from 0.291 to 0.845.

First: NCI-H1792
Second: NCI-H1563
The relative viability of the first is higher: 0.827 for the first, 0.438 for the second.

Same assay, conditions: first compound 5 µM

Going from NCI-H522 to NCI-H1623, the relative viability falls from 0.976 to 0.56.

Compared with NCI-H1650, NCI-H1993 is higher in relative viability: 0.278 for the first, 0.541 for the second.

First: SW 1573
Second: NCI-H838
The relative viability of the first is higher: 0.65 for the first, 0.297 for the second.

First: LCLC-103H
Second: NCI-H520
The relative viability of the first is higher: 0.512 for the first, 0.171 for the second.

First: NCI-H2126
Second: EMC-BAC-2
The relative viability of the first is higher: 0.484 for the first, 0.366 for the second.

Compared with NCI-H2085, HCC-366 is higher in relative viability: 0.211 for the first, 0.675 for the second.

Compared with NCI-H1666, NCI-H596 is lower in relative viability: 0.832 for the first, 0.644 for the second.

First: LK-2
Second: NCI-H2087
The relative viability of the first is lower: 0.299 for the first, 0.991 for the second.

Going from NCI-H2342 to SK-MES-1, the relative viability falls from 0.343 to 0.289.

First: H3255
Second: COR-L23
The relative viability of the first is lower: 0.34 for the first, 0.481 for the second.

First: COR-L 105
Second: LOU-NH91
The relative viability of the first is lower: 0.407 for the first, 0.658 for the second.

First: ChaGo-K-1
Second: NCI-H2170
The relative viability of the first is lower: 0.523 for the first, 0.683 for the second.

First: NCI-H2405
Second: HOP-62
The relative viability of the first is lower: 0.201 for the first, 0.727 for the second.

Compared with SW 900, LU99A is higher in relative viability: 0.398 for the first, 0.642 for the second.

First: BEN
Second: HARA
The relative viability of the first is lower: 0.351 for the first, 0.403 for the second.

Compared with HCC-78, NCI-H322M is higher in relative viability: 0.276 for the first, 0.287 for the second.

Going from LCLC-97TM1 to NCI-H2009, the relative viability falls from 1.04 to 0.283.

Compared with A-427, NCI-H1792 is higher in relative viability: 0.71 for the first, 0.833 for the second.

With NCI-H1563 the relative viability was 0.497.

Same assay, conditions: first compound 15.81 µM

First: NCI-H522
Second: NCI-H1623
The relative viability of the first is higher: 0.828 for the first, 0.573 for the second.

First: NCI-H727
Second: NCI-H1650
The relative viability of the first is higher: 0.469 for the first, 0.277 for the second.

Compared with NCI-H1993, SW 1573 is lower in relative viability: 0.502 for the first, 0.454 for the second.

Going from NCI-H838 to LCLC-103H, the relative viability rises from 0.295 to 0.523.

Compared with NCI-H520, NCI-H2126 is higher in relative viability: 0.207 for the first, 0.436 for the second.

First: EMC-BAC-2
Second: NCI-H2085
The relative viability of the first is higher: 0.331 for the first, 0.229 for the second.

First: HCC-366
Second: NCI-H1666
The relative viability of the first is lower: 0.708 for the first, 0.755 for the second.

Going from NCI-H596 to LK-2, the relative viability falls from 0.578 to 0.255.

First: NCI-H2087
Second: NCI-H2342
The relative viability of the first is higher: 0.765 for the first, 0.352 for the second.

Going from SK-MES-1 to H3255, the relative viability rises from 0.3 to 0.483.

Compared with COR-L23, COR-L 105 is higher in relative viability: 0.385 for the first, 0.455 for the second.

Compared with LOU-NH91, ChaGo-K-1 is lower in relative viability: 0.535 for the first, 0.507 for the second.

Compared with NCI-H2170, NCI-H2405 is lower in relative viability: 0.731 for the first, 0.211 for the second.

Compared with HOP-62, SW 900 is higher in relative viability: 0.601 for the first, 0.711 for the second.

Going from LU99A to BEN, the relative viability falls from 0.577 to 0.323.

Going from HARA to HCC-78, the relative viability rises from 0.291 to 0.424.

Going from NCI-H322M to LCLC-97TM1, the relative viability rises from 0.287 to 0.881.

Going from NCI-H2009 to A-427, the relative viability rises from 0.265 to 0.664.

Going from NCI-H1792 to NCI-H1563, the relative viability falls from 0.665 to 0.484.

Same assay, conditions: first compound 50 µM

First: NCI-H522
Second: NCI-H1623
The relative viability of the first is higher: 0.827 for the first, 0.641 for the second.

Going from NCI-H727 to NCI-H1650, the relative viability rises from 0.312 to 0.337.

First: NCI-H1993
Second: SW 1573
The relative viability of the first is higher: 0.575 for the first, 0.431 for the second.

Going from NCI-H838 to LCLC-103H, the relative viability rises from 0.335 to 0.523.

Going from NCI-H520 to NCI-H2126, the relative viability rises from 0.245 to 0.526.

Going from EMC-BAC-2 to NCI-H2085, the relative viability falls from 0.394 to 0.217.

Going from HCC-366 to NCI-H1666, the relative viability rises from 0.717 to 0.876.

Going from NCI-H596 to LK-2, the relative viability falls from 0.632 to 0.447.

First: NCI-H2087
Second: NCI-H2342
The relative viability of the first is higher: 0.844 for the first, 0.316 for the second.

First: SK-MES-1
Second: H3255
The relative viability of the first is lower: 0.336 for the first, 0.788 for the second.

Going from COR-L23 to COR-L 105, the relative viability falls from 0.502 to 0.501.

First: LOU-NH91
Second: ChaGo-K-1
The relative viability of the first is lower: 0.552 for the first, 0.726 for the second.

First: NCI-H2170
Second: NCI-H2405
The relative viability of the first is higher: 0.777 for the first, 0.243 for the second.

First: HOP-62
Second: SW 900
The relative viability of the first is lower: 0.649 for the first, 0.656 for the second.

First: LU99A
Second: BEN
The relative viability of the first is higher: 0.476 for the first, 0.42 for the second.

First: HARA
Second: HCC-78
The relative viability of the first is higher: 0.328 for the first, 0.306 for the second.

Going from NCI-H322M to LCLC-97TM1, the relative viability rises from 0.281 to 0.945.

First: NCI-H2009
Second: A-427
The relative viability of the first is lower: 0.275 for the first, 0.826 for the second.

First: NCI-H1792
Second: NCI-H1563
The relative viability of the first is higher: 0.822 for the first, 0.41 for the second.
